# Assay results reported in patent publication US10576084B2, “Salt of fused heterocyclic derivative and crystal thereof” (KISSEI PHARMACEUTICAL CO., LTD., priority 2010, dated 2020).
# Structures can show the parent of a compound that is named as a salt.
# Key:
# [1] = assay type: physicochemical; conditions: for saturation solubility in 1st fluid: pH 1.2; for saturation solubility in 2nd fluid: pH 6.8
# Experimental: Saturation Solubility Test
# The compound (A) obtained in Example 2, the compound (B) crystals obtained in Comparative Example 2, and the compound (C) obtained in Comparative Example 3 were suspended in water, or in 1st fluid for dissolution test (hereinafter, referred to as “1st fluid”) or 2nd fluid (hereinafter, referred to as “2nd fluid”) described in the Reagents·Test Solutions for General Tests, the Japanese Pharmacopoeia, 15th Edition. The suspensions were incubated at 37° C. After filtering a part of the suspensions, the concentrations of the resulting filtrates were measured by HPLC, and the saturation solubilities were calculated and compared. The HPLC measurement conditions are as follows.
# • Detector: Ultraviolet and visible spectrophotometer /wavelength: 225 nm • Column: GL Science Inertsil ODS-3,5 μm, 4.6×250 mm • Column temperature: a constant temperature of around 35° C. • Flow rate: 1.0 mL/min • Mobile phase A: 10 mM potassium dihydrogen phosphate aqueous solution adjusted to pH 5.5 with potassium hydroxide aqueous solution • Mobile phase B: Acetonitrile • Mobile phase ratio 0 to 30 min: mobile phase A/mobile phase B=70/30
# The saturation solubility values of compound (A), compound (B) crystals, and compound (C) in water, 1st fluid, and 2nd fluid are shown in Table 2. […] The saturation solubility of compound (A) in 1st fluid was about 30 times and about 2 times higher than those of compound (B) crystals and compound (C), respectively. In 2nd fluid, the saturation solubility of compound (A) was about 10 times and about 70 times higher than those of compound (B) crystals and compound (C), respectively.
# [2] = Stability test (storage under 90° C. open conditions, purity by HPLC); assay type: physicochemical
# Experimental: Stability Test The compound (A) obtained in Example 2 was stored under 90° C. open conditions to examine stability. In stability measurement, the purity of a sample was measured by HPLC at the initial point and after 8 days, and the results were compared. The HPLC measurement conditions are as follows. Measurement Conditions • Detector: Ultraviolet and visible spectrophotometer/wavelength: 225 nm • Column: GL Science Inertsil ODS-3,5 μm, 4.6×250 mm • Column temperature: Constant temperature around 35° C. • Flow rate: 1.0 mL/min • Mobile phase A: 10 mM potassium dihydrogen phosphate aqueous solution adjusted to pH 5.5 with potassium hydroxide aqueous solution • Mobile phase B: Acetonitrile • (Mobile phase ratios are shown in Table 4) • Area measurement range: 54 minutes from the start of the analysis. Areas of the peaks in the blank were excluded from the calculations.
# in vivo = test: in vivo; parameters: species or system SD rats; conditions: male, SD, rat; for maximum drug concentration time (Tmax): po, 3 mg/kg
# Experimental: Assay for Oral Absorbability
# 1) Preparation of Sample for Drug Concentration Measurement by Administration through Tail Vein
# SD rats (Charles River, male, 7 weeks of age, 170 to 210 g) were used as experimental animals after fasting the rats overnight. N,N-dimethylacetamide (0.2 mL), saline (0.798 mL) and 2N-NaOH (0.002 mL) were added in these amounts with respect to 1 mg of the compound (B) to prepare a 1.0 mg/mL solution. The solution was then administered in a 1 mL/kg dose (1 mg/kg) through the tail vein under no anesthesia (3 samples). The intravenous administration through tail was performed using a 26G injection needle and a 1 mL syringe. Blood was collected through the subclavian veins after 2, 15, 60, 120, 240 and 360 minutes from the intravenous administration through tail. The blood was centrifuged, and the plasma was used as a sample for blood drug concentration measurement.
# 2) Preparation of Sample for Drug Concentration Measurement by Oral Administration
# SD rats (Charles River, male, 7 weeks of age, 220 to 290 g) were used as experimental animals after fasting the rats overnight. A 0.5% methylcellulose aqueous solution (5 mL) was added with respect to 3 mg of compound (A) or compound (B) (in terms of a free compound) to prepare a 0.6 mg/mL drug solution. Each solution was orally administered to the rats in a 5 mL/kg dose (3 mg/kg) (3 samples each). The oral administration was performed using a rat sonde and a 2.5-mL syringe. […]
# A suitable internal standard substance solution (0.1 mL) was added to the blood plasma (0.025 mL) obtained in 1) and 2) using an ordinary method. […] Blood plasma drug concentration was measured using the LC-MS/MS technique under the conditions below. […]
# Bioavailability (%) was calculated from the value of the area under the blood drug concentration-time curve determined by using a WinNonlin Professional (Pharsight Corporation) from the blood drug concentration at each time point obtained as above after the intravenous administration of the compound (B) through tail and the oral administration of the compound (A) or the compound (B).
saturation solubility in water [1] [µg/mL],saturation solubility in 1st fluid [1] [µg/mL],saturation solubility in 2nd fluid [1] [µg/mL],Purity (%) after 8 days ([2]; after 8 days under 90° C. open conditions) [%],"Purity (%) at initial point ([2]; initial point, before storage) [%]",bioavailability (in vivo) [%],maximum drug concentration time (Tmax) (in vivo) [h],Compound
4165,4,3738,99.6,99.6,~59,0.583,"COc1cc(F)c(-n2c(=O)[nH]c3csc(C(=O)O)c3c2=O)cc1OCc1c(OC)ccc(F)c1F (single isomer, unassigned) [compound (A), 3-[2-fluoro-5-(2,3-difluoro-6-methoxybenzyloxy)-4-methoxyphenyl]-2,4-dioxo-1,2,3,4-tetrahydrothieno[3,4-d]pyrimidine-5-carboxylic acid choline salt]"
7,0.14,367,–,–,–,3.33,"COc1cc(F)c(-n2c(=O)[nH]c3csc(C(=O)O)c3c2=O)cc1OCc1c(OC)ccc(F)c1F (single isomer, unassigned) [compound (B), 3-[2-fluoro-5-(2,3-difluoro-6-methoxybenzyloxy)-4-methoxyphenyl]-2,4-dioxo-1,2,3,4-tetrahydrothieno[3,4-d]pyrimidine-5-carboxylic acid, reference compound]"
68,2,52,–,–,–,–,"COc1cc(F)c(-n2c(=O)[nH]c3csc(C(=O)O)c3c2=O)cc1OCc1c(OC)ccc(F)c1F.COc1cc(F)c(-n2c(=O)[nH]c3csc(C(=O)O)c3c2=O)cc1OCc1c(OC)ccc(F)c1F.c1ccc(CNCCNCc2ccccc2)cc1 [compound (C), 3-[2-Fluoro-5-(2,3-difluoro-6-methoxybenzyloxy)-4-methoxyphenyl]-2,4-dioxo-1,2,3,4-tetrahydrothieno[3,4-d]pyrimidine-5-carboxylic acid.1/2N,N′-dibenzylethylenediamine salt, reference compound]"
